From patent publication US20230272460A1, “Method for Targeted Nucleic Acid Cleavage” (Cambridge Enterprise Limited, priority 2020, published 2023)

Test system: 18S and BRD4 transcripts in MOLM13 cells
Experiment: Cellular RNA degradation reactions (acCLICK-Seq), RT-qPCR
Format: cell-based, human
Method: MOLM13 cells were suspended RPMI-1640 media (Gibco) supplemented with 10% v/v FBS and 1% v/v penicillin/streptomycin/L-glutamine at a density of 1,000,000 cells mL^-1. The cells were incubated for 30 min at 37° C. followed by addition of ethyl-3-butynoate at a final concentration of 200 μM. Treated cells were incubated for further 24 h at 37° C. […] Levels of specific RNAs were measured using fast mode of QuantStudio 3 Real-Time PCR System (Applied Biosystems) and PowerUpTM SYBR Green Master Mix (Applied Biosystems) according to the manufacturer's instructions. In the qPCR analysis RNA levels were normalised to the 5S gene ([…]) or the GAPDH gene (glycoCLICK-seq). These housekeeping gene was chosen as their levels fluctuated the least under various conditions tested.

C#CCC(=O)OCC [ethyl-3-butynoate, Ethyl-3-butynoate]
relative expression levels of 18S and BRD4 transcripts, clicked versus non-clicked control cells (WT MOLM13, ethyl-3-butynoate 200 μM 24 h, then click-degrader 1 400 μM CuAAC): reduction
expression levels of 18S and BRD4 transcripts in clicked cells (cells with NAT10 knocked-out): rescued
